Patent US7402575B2, “Methods of treating inflammation” (priority 2003, dated 2008)
Entries after “also recorded” stand apart in the source; their conditions may differ.

Experiments:
Format in all cases: cell-based, dog
lysozyme c (Lzm-S) [1] = biological target: T1, lysozyme c (Lzm-S) (Canis lupus familiaris, UniProt P81709); assay: Inhibition of Lzm-S's myocardial depressant activity (isometric tension) in right ventricular trabecular preparation; settings: for Attenuation of the reduction in isometric tension, inhibitor added after Lzm-S: Lzm-S 10^−7M added before the inhibitor; for Isometric tension following pre-treatment with sugar: Lzm-S 10^−7M, sugar 10^−3M added before Lzm-S; for Inhibition of Lzm-S's depressant effect on isometric tension: inhibitor 10^−3M added before Lzm-S, paced 0.5 Hz
T1 construct: Lzm-S was purified in a manner described by Grobler et al (14); from tissue
T1 sequence (P81709 1-130): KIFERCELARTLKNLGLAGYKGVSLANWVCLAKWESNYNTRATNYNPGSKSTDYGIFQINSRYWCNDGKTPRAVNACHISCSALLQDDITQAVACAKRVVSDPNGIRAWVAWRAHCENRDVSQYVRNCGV
Protocol: In subsequent experiments, the objective was to determine whether pretreatment of Lzm-S with the proteolytic enzyme proteinase-K reduced the extent to which myocardial depression developed in the in vitro preparation (7). Proteinase-K (attached to beaded agarose; Sigma Chemical, St Louis, Mo.) was added to the pure Lzm-S preparation. The effects of proteinase-K treated and nontreated Lzm-S on isometric tension were compared between the samples. Since proteinase-K is a non-specific proteolytic enzyme, a specific competitive inhibitor of lysozyme, TAC (chitotriose) was subsequently examined to determine whether it prevented the depression in isometric tension observed in the in vitro preparation (16,17).
In one set of experiments, it was determined whether TAC prevented the reduction in tension observed with Lzm-S. A dose of 10^−3M TAC (based on preliminary experiments) was added to the organ bath before the addition of Lzm-S. Lzm-S was then added to bring the final concentrations to 10^−10M, 10^−9M, 10^−8M, and 10^−7M in sequential steps. In a related set of experiments, the effect of TAC was studied under a similar protocol in which the ventricular trabecular preparation was paced at 1 Hz instead of 0.5 Hz. The objective was to determine whether the higher frequency altered the inhibitory response of TAC. In a third set of experiments, the sequence of adding TAC and Lzm-S was reversed. Lzm-S (10^−7M) was initially added to the preparation, after which TAC at bath concentrations of 10^−6M, 10^−5M, 10^−4M, 10^−3M were sequentially added. The objective was to determine whether TAC could attenuate the effect of Lzm-S on reducing the isometric response after an initial depression in isometric tension had already been attained.
The right ventricular (RV) preparation used in this study has also been described (49,6). Briefly, mongrel dogs (3 to 10 kg) were anesthetized with pentobarbital. The hearts were removed, flushed with 50 ml of Krebs-Henseleit solution (KH), and placed in ice-cold KH bubbled with a mixture of 95% O2 and 5% CO2. Three to four thin trabeculae (<1 mm diameter) were obtained from the right ventricle and were tied at each end with 6-O silk thread. Each thin muscle was suspended in a vertical constant temperature bath (5 ml) that contained KH (in mM: NaCl, 118; KCl, 4.7; CaCl2 2.5; MgSO4, 1.2; KH2PO4, 1.4; NaHCO3, 25; and dextrose, 11). The muscle was stimulated electrically via punctate platinum bipolar electrodes with rectangular pulses (1 ms duration) at an intensity of 50% above threshold delivered at intervals of 2,000 ms. The trabeculae were stretched to optimal length.
Inhibitory activities of N-acetylglucosamine (NAG), N,N′ diacetylglucosamine (NAG-NAG: N,N′ diacetylchitobiose), and N,N′,N″,N′″ tetraacetylglucosamine (NAG-NAG-NAG-NAG: N,N′,N″,N′″-tetraacetylchitotetraose) were examined (Sigma Corp Canada, Oakville Ontario). These are structurally similar to TAC, but have a different number of NAG units (17). Two somewhat related sugars were also examined to see if there was potential for blocking the activity of lysozyme. These included D-cellotriose and N-aceytllactosamine. D-cellotriose includes three glucose residues linked by beta (1-4) glycosidic linkages, while N acetyllactosamine includes N-acetylglucosamine and galactose residues linked by beta (1-4) glycosidic linkages (12).
After baseline tension was determined, either the sugar or placebo was placed into respective organ baths. The concentration of the sugar used was 10^−3M based on the inventors' previous experiments with TAC 49), while the concentrations of lysozyme were 10^−9, 10^−8, and 10^−7M, respectively. Measurements were obtained at 5 minute intervals. The changes in isometric tension measured from baseline were compared between the treated and placebo baths. […]

[2] = tested on: right ventricular trabecular preparation; assay: Effect of the substance itself on isometric tension in right ventricular trabecular preparation
Protocol: Aliquots of the 10-30 KD plasma fraction (0.05 to 1 ml) were then added to a right ventricular (RV) trabecular preparation to test for the presence of FCS activity. The RV preparation has previously been described (6,7). Briefly, mongrel dogs (3 to 10 kg) were anesthetized with pentobarbital, and their hearts were removed. Three to four thin trabeculae (<1 mm diameter) were obtained from the right ventricle and were suspended in a vertical constant temperature bath (5 ml) that contained Krebs Henseleit (KH) solution. The muscle was stimulated electrically at 0.5 Hz. Aliquots of plasma fractions (from 0.05 to 1 ml) were added to respective organ baths at 5 minute intervals. The changes observed in the pre and septic plasma fractions were expressed relative to tensions found at baseline (i.e. prior to the addition of the sample). An increase in the depressant activity in the septic plasma fraction relative to that found in the presepsis sample was indicative of an increase in FCS.
The effect of purified Lzm-S on myocardial depression was then studied in the ventricular trabecular preparation. In initial experiments, the objective was to compare Lzm-S prepared from septic and nonseptic spleens to see if there was any difference between the two preparations. Although no differences were apparent by SDS-PAGE gel, different isoforms of the enzyme could have developed in sepsis thereby increasing its potential to cause myocardial depression. Aliquots of the septic and nonseptic preparations were added (at 5 minute intervals) to respective organ baths, and the changes in isometric tension were then compared between Lzm-S obtained from spleens of septic and nonseptic animals.
The right ventricular (RV) preparation used in this study has also been described (49,6). Briefly, mongrel dogs (3 to 10 kg) were anesthetized with pentobarbital. The hearts were removed, flushed with 50 ml of Krebs-Henseleit solution (KH), and placed in ice-cold KH bubbled with a mixture of 95% O2 and 5% CO2. […]
After baseline tension was determined, either the lectin or placebo was placed into respective organ baths. […]

lysozyme c (Lzm-S) [3] = biological target: T1, lysozyme c (Lzm-S); assay: Inhibition of Lzm-S's myocardial depressant activity (isometric tension) in right ventricular trabecular preparation; settings: Lzm-S 10^−7M first, then inhibitor 10^−3M at 15 min intervals (Example 4)

## CC(=O)N[C@H]1[C@H](O[C@H]2[C@H](O)[C@@H](NC(C)=O)C(O)O[C@@H]2CO)O[C@H](CO)[C@@H](O[C@@H]2O[C@H](CO)[C@@H](O)[C@H](O)[C@H]2NC(C)=O)[C@@H]1O (stereo partly drawn) [TAC, N,N′,N″ triacetylglucosamine]
Lysozyme c (Lzm-S) [1]
  Attenuation of the reduction in isometric tension, inhibitor added after Lzm-S: treatment attenuated the reduction in isometric tension; also recorded: attenuated the decrease in isometric tension as compared to when no intervention was instituted
  Isometric tension following pre-treatment with sugar: approximately 77 % of baseline
  Inhibition of Lzm-S's depressant effect on isometric tension: significantly less than that found in the nontreated group
Lysozyme c (Lzm-S) [1]; TAC 10^−3M before Lzm-S, paced 1 Hz
  Attenuation of Lzm-S's depressant activity at higher pacing rate: still observed at this higher heart rate
[2]
  Effect of the substance by itself on isometric tension: no effect on isometric tension; also recorded: modest depressant effect
Lysozyme c (Lzm-S) [3]
  Isometric tension, inhibitor added after myocardial depression had already been produced by lysozyme: 55 % of baseline

## CC(=O)N[C@H]1[C@H](O[C@H]2[C@H](O)[C@@H](NC(C)=O)C(O)O[C@@H]2CO)O[C@H](CO)[C@@H](O)[C@@H]1O (stereo partly drawn) [chitobiose, N,N′ diacetylglucosamine]
Lysozyme c (Lzm-S) [1]
  Attenuation of the reduction in isometric tension, inhibitor added after Lzm-S: attenuated the decrease in isometric tension as compared to when no intervention was instituted
  Isometric tension following pre-treatment with sugar: approximately 90 % of baseline
Lysozyme c (Lzm-S) [1]; listed as N,N′ diacetylchitobiose
  Inhibition of Lzm-S's depressant effect on isometric tension: completely blocked lysozyme's depressant activity
Lysozyme c (Lzm-S) [1]; listed as diacetylchitobiose
  Inhibition of Lzm-S's depressant effect on isometric tension: inhibited the depressant effect of Lzm-S
[2]
  Effect of the substance by itself on isometric tension: modest depressant effect
Lysozyme c (Lzm-S) [3]
  Isometric tension, inhibitor added after myocardial depression had already been produced by lysozyme: 65 % of baseline
